The source of these data is patent publication US20110165119A1, “TELAPREVIR DOSING REGIMEN” (priority 2008, published 2011).

The conditions of data set [1]: in vivo; cited from earlier work.
Data set [2] addresses T1, HCV NS3-4A protease (Hepatitis C virus genotype 1a, UniProt P27958).
T1 construct: against the HCV NS3-4A protease
Put plainly: in vitro potency against HCV NS3-4A protease. Particulars: relative to telaprevir. The class given is biochemical.

T1 sequence (P27958 1027-1657): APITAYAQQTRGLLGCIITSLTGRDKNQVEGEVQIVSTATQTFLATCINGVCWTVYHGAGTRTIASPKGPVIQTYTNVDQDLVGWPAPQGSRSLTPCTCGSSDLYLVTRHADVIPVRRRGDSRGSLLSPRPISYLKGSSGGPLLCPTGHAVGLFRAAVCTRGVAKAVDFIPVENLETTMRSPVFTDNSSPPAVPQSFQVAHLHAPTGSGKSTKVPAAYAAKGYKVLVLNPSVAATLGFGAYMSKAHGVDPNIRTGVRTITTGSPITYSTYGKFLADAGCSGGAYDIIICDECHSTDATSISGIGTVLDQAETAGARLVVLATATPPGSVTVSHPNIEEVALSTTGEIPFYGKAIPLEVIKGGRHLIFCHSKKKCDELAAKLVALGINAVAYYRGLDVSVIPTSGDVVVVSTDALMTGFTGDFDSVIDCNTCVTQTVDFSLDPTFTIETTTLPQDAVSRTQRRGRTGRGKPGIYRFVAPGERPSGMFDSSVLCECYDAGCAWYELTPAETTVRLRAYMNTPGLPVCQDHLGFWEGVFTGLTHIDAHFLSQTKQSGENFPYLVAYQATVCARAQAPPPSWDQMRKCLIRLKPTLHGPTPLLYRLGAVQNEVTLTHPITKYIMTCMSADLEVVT
T1 sequence (P27958 1658-1711): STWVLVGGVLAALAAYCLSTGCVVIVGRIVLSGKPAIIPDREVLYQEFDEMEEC

As for `CCC[C@H](NC(=O)[C@@H]1[C@H]2CCC[C@H]2CN1C(=O)[C@@H](NC(=O)[C@@H](NC(=O)c1cnccn1)C1CCCCC1)C(C)(C)C)C(=O)C(=O)NC1CC1` (single isomer, unassigned) [Telaprevir], in data set [1], the oral bioavailability entry is recorded as “orally bioavailable”.

For `CCCC(NC(=O)C1C2CCCC2CN1C(=O)C(NC(=O)C(NC(=O)c1cnccn1)C1CCCCC1)C(C)(C)C)C(=O)C(=O)NC1CC1` (single isomer, unassigned) [R-diastereisomer], the “times less potent than telaprevir against the HCV NS3-4A protease” value in data set [2] is reported as “about 30 times”.
